This note sets out measurements from the METLIN SMRT retention time set (Domingo-Almenara et al. 2019).

Molecules are shown by their SMILES.

The series in a line: gradient 5% acetonitrile 3 min, to 50% in 2 min, to 85% in 15 min, held 3 min, 100 µL/min. Particulars: column: Zorbax Extend-C18 2.1 x 50 mm; eluents: water / acetonitrile, 0.1% formic acid. The gist of the method: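 In both positive and negative ionization mode, a quadrupole time-of-flight mass spectrometer coupled to HPLC analyzed pure standards run in mixtures of ~100 molecules. The Zorbax Extend-C18 column (2.1 × 50 mm, 1.8 μm) was operated at 100 μL/min with water and acetonitrile, each containing 0.1% formic acid. The dead volume was 40 μL and the dwell volume 900 μL. Retention time came from adduct peaks that were computationally picked and individually inspected by hand.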
In the case of `Cc1ccc(CNC(=O)C2(C)Cn3cnc(C(=O)NCCc4ccccc4)c3C(=O)N2C2CC2)cc1` (stereo not drawn), the RP-LC retention time stood at 816 s.

`CCOC(=O)c1c(CN2CCN(C)CC2)n(-c2ccccc2)c2cc(Br)c(OC)cc12`: the RP-LC retention time stood at 850 s. With `CCCn1c(=O)c2sc(N3CCCC3)nc2n(CC(=O)NCc2cccs2)c1=O` the figure was 755 s; with `O=C(Cc1csc2nc(-c3ccccc3)cn12)Nc1ccccc1F`, 764 s; with `CC(C)Sc1nnc(N2CCN(c3ccc(F)cc3)CC2)s1`, 1000 s. With `O=C(Nc1nc(-c2ccc(Cl)cc2)cs1)c1cccc(-n2cnnc2)n1` the figure was 865 s; with `O=C(c1cc(-c2ccncc2)n[nH]1)N1CCCC(C(=O)N2CCN(c3ccc(F)cc3)CC2)C1` (stereo not drawn), 615 s. Regarding `O=C(Nc1ccccc1F)C1CCCN(S(=O)(=O)c2cc(-c3noc(C4CCC4)n3)cs2)C1` (stereo not drawn), the RP-LC retention time came out at 1160 s. Regarding `O=C1CN(Cc2ccccc2)[C@H]2CS(=O)(=O)C[C@H]2N1c1ccc(Br)cc1`, the RP-LC retention time is 845 s. With `NS(=O)(=O)c1ccc(NC(=O)c2csc3c2CCCC3)cc1` the figure was 769 s; with `CCOC(=O)c1ccc(NC(=O)COc2ccc(-c3nnc4n3CCCC4)cc2)cc1`, 730 s.

`Cc1ccc(CNC(=O)c2cccc(-c3nc4cccnc4n3C(C)C)c2)o1` registered an RP-LC retention time of 793 s. Consider `O=C(NCC(=O)N1CCCc2ccccc21)c1ccccc1F`, for which the RP-LC retention time is 831 s. With `Cc1nc([C@@H]2CN(C(=O)c3noc(C)c3Cn3cccn3)C[C@H]2C(N)=O)n[nH]1`, the RP-LC retention time is 578 s.

As for `Cc1ccnc(N2CCCC(C(=O)NCc3ccc4c(c3)OCO4)C2)n1` (stereo not drawn), the RP-LC retention time came out at 692 s. With `CCOc1ccc(CNC(=O)C2CCCN(C(=O)c3[nH]c(C)c(C(=O)OC(C)C)c3C)C2)cc1` (stereo not drawn) the figure was 877 s; with `Cc1cc(=O)n(CC(=O)NCc2ccc3c(c2)OCO3)c(N2CCCCC2)n1`, 945 s; with `CC(C)CN1Cc2c(nc3ccccc3c2C(=O)N2CCC(C)CC2)C1=O`, 834 s. With `COCCCn1c(=O)c2ccccc2n(Cc2nc(-c3ccc(Br)cc3)no2)c1=O` the figure was 1120 s. With `CCn1c(C(=O)Nc2cc(C)cc(C)c2)cc2sc(Cl)cc21`, the RP-LC retention time came out at 1110 s.

The molecule `Cc1ccc(C)c(-c2coc(-c3ccc(NC(=O)C4CCCCC4)cc3)n2)c1` showed an RP-LC retention time of 1370 s. For `Nc1nc(Cl)nc2c1ncn2[C@@H]1O[C@H](CO)[C@H](O)C1O` (stereo partly drawn), the RP-LC retention time amounted to 611 s. In the case of `Cc1sc(C)c(S(=O)(=O)N2CCCCC2)c1-c1cc(C(F)(F)F)on1`, the RP-LC retention time was 1210 s. With `Cc1cc(-c2nnc(-c3ccco3)o2)c(C)n1CC(=O)NCc1cc(F)cc(F)c1` the figure was 852 s; with `CCCC(=O)Nc1ccc2c(c1)N(C(=O)c1ccco1)CCC2`, 604 s; with `Cc1ccc(C(=O)NCCc2ncc(C)n2C2CCC2)s1`, 564 s. With `O=S(=O)(NCC1CCN(Cc2cccs2)CC1)c1cc(F)ccc1F` the figure was 562 s; with `CCn1c(=O)c(N2CCN(C(=O)Nc3ccc(F)cc3F)CC2)nc2ccccc21`, 895 s. With `O=C(C1CCN(c2ccc3nncn3n2)CC1)N1CCN(c2ccccn2)CC1` the figure was 560 s; with `CC(=O)N1CCc2cc(-c3ccc(C(=O)NCCN4CCCC4)cc3)ccc21`, 607 s; with `C=CCN1CCN(C(=O)C2=NN(c3ccc(C)cc3)c3ncccc3S2(=O)=O)CC1`, 637 s. Regarding `COc1ccc(-c2nc3cnccn3c2Nc2ccc(C(=O)N3CCOCC3)cc2)cc1`, the RP-LC retention time came to 664 s. With `COc1cc(NC(=O)c2cc3cc4cc(OC)ccc4nc3o2)cc(OC)c1` the figure was 971 s. With `CCN(CC)CCNC(=O)CSc1cc(=O)n(C)c2cc(Cl)ccc12` the figure was 622 s. With `O=C(CCn1cnc2ccccc2c1=O)N1CCN(c2ccccn2)CC1` the figure was 578 s; with `Cn1cc(-c2cc3n(n2)CCC(=O)N3CC(=O)NCCCN2CCCCCC2)c2ccccc21`, 621 s. For the molecule `CCc1sc(NC(=O)c2cc3c([nH]c2=O)CCCC3=O)nc1-c1ccc2c(c1)CCCC2`, the RP-LC retention time came out at 1170 s. As for `Cc1nc(-c2ccc(N3CCN(C(=O)c4n[nH]c5ccccc45)CC3)nc2)sc1C`, the RP-LC retention time was found to be 864 s. As to `Cc1ccc(S(=O)(=O)N2CCCC(Cn3c(C4CC4)nc4cccnc43)C2)c(C)c1` (stereo not drawn), the RP-LC retention time was determined as 832 s.

`O=C(c1ccco1)N1CCc2cc(-c3ccno3)ccc21` yielded an RP-LC retention time of 815 s.

In the case of `Cc1nn(C)c(C)c1S(=O)(=O)N1CCCC(Cc2nncn2-c2ccccc2)C1` (stereo not drawn), the RP-LC retention time amounted to 604 s. With `O=C(Nc1nc(-c2ccc([N+](=O)[O-])cc2)cs1)c1ccc(COc2c(F)c(F)cc(F)c2F)o1` the figure was 1190 s; with `CSc1ccc(CNC(=O)C2CCCN(c3ncc(-c4ccc(F)cc4)cn3)C2)cc1` (stereo not drawn), 1090 s. Take `CN1C(=O)c2cccn2CC1C(=O)NCCc1c[nH]c2ccccc12` (stereo not drawn): the RP-LC retention time was determined as 690 s. With `C=CCn1c(=O)c2ccccc2n(Cc2nc(-c3ccc(Cl)c(F)c3)no2)c1=O` the figure was 1120 s. With `Cc1cc(NC(=O)C2CCN(C(=O)c3cnn(-c4ccccc4)n3)CC2)no1` the figure was 847 s; with `COc1ccc2c(c1)C1(CCN(S(=O)(=O)c3cccc(Cl)c3)C1)C(=O)N2C` (stereo not drawn), 978 s; with `CC(=O)c1ccc(NC(=O)Cn2nc3c4cc(-c5ccc(C(C)C)cc5)nn4ccn3c2=O)cc1`, 1020 s. With `COc1ccc(NC(=O)Cn2nc3c(Oc4ccccc4Cl)nccn3c2=O)cc1` the figure was 859 s. With `CCn1c(=O)c(NCc2ccc(C(C)C)cc2)nc2ccncc21`, the RP-LC retention time turned out to be 720 s. Molecule `Cc1cc(C2CCCN2C(=O)Nc2cc(Cl)ccc2C)no1` (stereo not drawn) registered an RP-LC retention time of 893 s. With `O=C(C1CCN(S(=O)(=O)N2CCCC2)CC1)N1CCN(Cc2noc3ccccc23)CC1` the figure was 671 s.

Regarding `CN(C)c1ccc(CNC(=O)CCCN2C(=O)CCn3nc(-c4cn(C)c5ccccc45)cc32)cc1`, the RP-LC retention time was 602 s. With `CCCN(CC1CCOC1)C(=O)Nc1ccccc1CC` (stereo not drawn) the figure was 823 s; with `CC(C)NC(=O)c1ccc2c(c1)CCCN2C(=O)c1ccc(F)cc1`, 784 s; with `O=C(Nc1ccccc1)C(=O)c1cn(CC(=O)N2CCOCC2)c2ccccc12`, 860 s. With `CCNC(=O)CN1C(=O)CCn2nc(-c3cn(C)c4ccccc34)cc21` the figure was 656 s.

The molecule `COc1ccc(-c2noc(C3CCCN3C(=O)c3ccc(N(C)C)cc3)n2)cc1OC` (stereo not drawn) showed an RP-LC retention time of 881 s.
